Counter-ions that a name gives are not always drawn.

These results are taken from patent US4861889A, “3-(2,3,4,5,6-pentafluorophenoxy)-8-azabicyclo[3.2.1]octanes” (Hoechst-Roussel Pharmaceuticals, Inc., priority 1988, dated 1989).

Experiment [1] can be described thus: antihypertensive activity, indirect tail cuff method (SHR). It is filed as in vivo, spontaneous hypertensive rat. As to conditions: treated three days, drop measured on third day, decrease in mean arterial blood pressure. Here is the method:
The compounds of this invention are also useful as antihypertensive agents due to their ability to depress blood pressure in mammals. Antihypertensive activity is measured in the spontaneous hypertensive rat by the indirect tail cuff method described in "Methods in Pharmacology", A. Schwartz, Ed., Vol. I, Appleton-Century Crofts, New York, N.Y., 1971, p. 135. In this procedure a group of five animals is treated orally for three days with the test compound in relation to a control group of the same number. The drop in blood pressure is measured on the third day following administration. The antihypertensive activities of representative compounds, expressed as a decrease in mean arterial blood pressure (in mm Hg), are given in Table 3 along with the activity of a standard compound.

A short description of experiment [2]: phenyl-p-benzoquinone writhing assay (analgesic activity). The conditions noted are these: Mus musculus, sc; mice, 20 mg/kg, s.c.; read-out: % Inhibition of writhing at a screening dose of 20 mg/kg, s.c. It is filed as in vivo, male mice (Charles River, CD-1). As to the method:
The compounds of this invention are useful as analgesic agents due to their ability to alleviate pain in mammals. The procedure employed to determine analgetic utility is a modification of the phenyl-p-benzoquinone writhing assay in mice, a standard assay for analgesia [Proc. Soc. Exptl. Bio. Med., 95, 729 (1957)]. Pursuant to the modified procedure phenyl-p-benzoquinone (Eastman, 12.5 mg) is dissolved in 5 ml of 95% ethanol and the solution is diluted to a total volume of 100 ml with distilled water. The solution is administered to the subject mice intraperitoneally at a dose of 10 ml per kg of body weight. A characteristic "writhe"an inward rotation of one or more feet with twisting and turning of the trunk, drawing in of the abdominal wall, lordosis and arching of the back, is produced.
A total of 28 male mice (Charles River, CD-1), weighing 18 to 30 grams, are employed for a time response. The subject animals receive food and water ad libitum. Test compounds are dissolved in distilled water, or suspended in distilled water containing one drop of a suitable surfactant, such as Tween-80.
Four groups of five animals (20 animals) are given the test compound subcutaneously (s.c.) or orally (p.o.) at 15, 30, 45 and 60 minutes prior to administration of the phenyl-p-quinone. A control group (2 animals per group) receive an equal volume of the vehicle. After the administration of the phenyl-p-quinone, the mice are place separately in one liter beakers, and after five minutes, are observed for ten minutes. The number of writhes for each animal is recorded. The following formula is used to compute the percent inhibition: [formula]
The time period with the greatest percent of inhibition is considered the peak time.
Background: An intraperitoneal irritant provokes the stretching counted in writhing tests.

For `Fc1ccc2c(CCCN3[C@@H]4CC[C@H]3C[C@H](Oc3c(F)c(F)c(F)c(F)c3F)C4)noc2c1` [(EXO)-8-[3-(6-FLUORO-1,2-BENZISOXAZOL-3-YL)PROPYL]-3-(2,3,4,5,6-PENTAFLUOROPHENOXY)-8-AZABICYCLO[3.2.1]OCTANE HYDROCHLORIDE], in experiment [1], the “mm dec. in BP at 50 mg/kg p.o.” value is 48 mm. Further, in experiment [2], the inhibition in vivo at 20 mg/kg was 49%.
